Data: ChEMBL document CHEMBL3779796, “One-pot synthesis and antimicrobial evaluation of novel 3-cyanopyridine derivatives of (-)-β-pinene” (2016)
Converted amounts (≈) assume the structure as drawn.

Legend:
Format in all cases: functional
Staphylococcus aureus = assay: Antimicrobial activity against Staphylococcus aureus after 24 hrs by serial two-fold microbroth dilution method
Klebsiella aerogenes = assay: Antimicrobial activity against Enterobacter aerogenes after 24 hrs by serial two-fold microbroth dilution method
Candida albicans = assay: Antimicrobial activity against Candida albicans after 48 hrs by serial two-fold microbroth dilution method
[1] = tested on: Staphylococcus epidermidis; assay: Antimicrobial activity against Staphylococcus epidermidis after 24 hrs by serial two-fold microbroth dilution method
Klebsiella pneumoniae = assay: Antimicrobial activity against Klebsiella pneumoniae after 24 hrs by serial two-fold microbroth dilution method

Row | SMILES | MIC (Staphylococcus aureus) [µg/mL] | MIC (Klebsiella aerogenes) [µg/mL] | MIC (Candida albicans) [µg/mL] | MIC [1] [µg/mL] | MIC (Klebsiella pneumoniae) [µg/mL]
1 | CC1(C)[C@H]2CCC(=O)[C@@H]1C2 | > 125 | > 125 | > 125 | > 125 | > 125
2 | CC1(C)[C@H]2Cc3c(nc(O)c(C#N)c3-c3ccc(F)c(F)c3)[C@@H]1C2 | 31.3 (≈ 95.9 µM) | 62.5 (≈ 192 µM) | 15.6 (≈ 47.8 µM) | 15.6 (≈ 47.8 µM) | 62.5 (≈ 192 µM)
3 | CC1(C)[C@H]2Cc3c(nc(O)c(C#N)c3-c3ccccc3)[C@@H]1C2 | 125 (≈ 430 µM) | > 125 | 125 (≈ 430 µM) | 125 (≈ 430 µM) | > 125
4 | CC1(C)[C@H]2Cc3c(nc(O)c(C#N)c3-c3ccc(C(F)(F)F)cc3)[C@@H]1C2 | 125 (≈ 349 µM) | 125 (≈ 349 µM) | 125 (≈ 349 µM) | 125 (≈ 349 µM) | > 125
5 | CC1(C)[C@H]2Cc3c(nc(N)c(C#N)c3-c3cccc(O)c3)[C@@H]1C2 | > 125 | 125 (≈ 409 µM) | 125 (≈ 409 µM) | 125 (≈ 409 µM) | 125 (≈ 409 µM)
6 | CC1(C)[C@H]2Cc3c(nc(N)c(C#N)c3-c3ccc(Br)cc3)[C@@H]1C2 | 125 (≈ 339 µM) | 125 (≈ 339 µM) | 62.5 (≈ 170 µM) | 125 (≈ 339 µM) | 125 (≈ 339 µM)
7 | Cc1ccc(-c2c(C#N)c(O)nc3c2C[C@H]2C[C@@H]3C2(C)C)cc1 | 125 (≈ 411 µM) | > 125 | 125 (≈ 411 µM) | 125 (≈ 411 µM) | > 125
8 | CC1(C)[C@H]2Cc3c(nc(N)c(C#N)c3-c3ccc(F)c(F)c3)[C@@H]1C2 | > 125 | 125 (≈ 384 µM) | 31.3 (≈ 96.2 µM) | 125 (≈ 384 µM) | 125 (≈ 384 µM)
9 | COc1ccccc1-c1c(C#N)c(O)nc2c1C[C@H]1C[C@@H]2C1(C)C | 125 (≈ 390 µM) | 125 (≈ 390 µM) | 62.5 (≈ 195 µM) | 125 (≈ 390 µM) | 125 (≈ 390 µM)
10 | COc1ccccc1-c1c(C#N)c(N)nc2c1C[C@H]1C[C@@H]2C1(C)C | > 125 | > 125 | 125 (≈ 391 µM) | 125 (≈ 391 µM) | > 125
11 | CC1(C)[C@H]2Cc3c(nc(N)c(C#N)c3-c3ccccc3)[C@@H]1C2 | > 125 | > 125 | 125 (≈ 432 µM) | 125 (≈ 432 µM) | > 125
12 | CC1(C)[C@H]2Cc3c(nc(O)c(C#N)c3-c3ccc(Cl)cc3Cl)[C@@H]1C2 | 62.5 (≈ 174 µM) | 62.5 (≈ 174 µM) | 62.5 (≈ 174 µM) | 31.3 (≈ 87.1 µM) | 125 (≈ 348 µM)
13 | COc1cccc(-c2c(C#N)c(N)nc3c2C[C@H]2C[C@@H]3C2(C)C)c1 | 125 (≈ 391 µM) | 125 (≈ 391 µM) | 125 (≈ 391 µM) | 125 (≈ 391 µM) | 125 (≈ 391 µM)
14 | CO[C@H]1/C=C/O[C@@]2(C)Oc3c(C)c(O)c4c(O)c(c(/C=N/N5CCN(C)CC5)c(O)c4c3C2=O)NC(=O)/C(C)=C\C=C\[C@H](C)[C@H](O)[C@@H](C)[C@@H](O)[C@@H](C)[C@H](OC(C)=O)[C@@H]1C [RIFAMPIN] | – | – | 3.9 (≈ 4.74 µM) | – | –
15 | CC1(C)[C@H]2Cc3c(nc(O)c(C#N)c3-c3ccc(Br)cc3)[C@@H]1C2 | 62.5 (≈ 169 µM) | 125 (≈ 339 µM) | 31.3 (≈ 84.8 µM) | 62.5 (≈ 169 µM) | 62.5 (≈ 169 µM)
16 | Cc1ccc(-c2c(C#N)c(N)nc3c2C[C@H]2C[C@@H]3C2(C)C)cc1 | > 125 | > 125 | 125 (≈ 412 µM) | > 125 | > 125
17 | CC1(C)[C@H]2Cc3c(nc(N)c(C#N)c3-c3ccc(Cl)cc3)[C@@H]1C2 | 125 (≈ 386 µM) | 125 (≈ 386 µM) | 62.5 (≈ 193 µM) | 125 (≈ 386 µM) | 125 (≈ 386 µM)
18 | COc1cccc(-c2c(C#N)c(O)nc3c2C[C@H]2C[C@@H]3C2(C)C)c1 | 62.5 (≈ 195 µM) | 125 (≈ 390 µM) | 125 (≈ 390 µM) | 62.5 (≈ 195 µM) | 125 (≈ 390 µM)
19 | CC1(C)[C@H]2Cc3c(nc(O)c(C#N)c3-c3ccc(Cl)cc3)[C@@H]1C2 | 31.3 (≈ 96.4 µM) | 62.5 (≈ 192 µM) | 31.3 (≈ 96.4 µM) | 31.3 (≈ 96.4 µM) | 62.5 (≈ 192 µM)
20 | CC1(C)[C@H]2Cc3c(nc(O)c(C#N)c3-c3cccc(Br)c3)[C@@H]1C2 | 62.5 (≈ 169 µM) | 62.5 (≈ 169 µM) | 31.3 (≈ 84.8 µM) | 31.3 (≈ 84.8 µM) | 62.5 (≈ 169 µM)
21 | CC1(C)[C@H]2Cc3c(nc(N)c(C#N)c3-c3ccccc3Cl)[C@@H]1C2 | 125 (≈ 386 µM) | 125 (≈ 386 µM) | 125 (≈ 386 µM) | 125 (≈ 386 µM) | 125 (≈ 386 µM)
22 | CC1(C)[C@H]2Cc3c(nc(O)c(C#N)c3-c3ccc(F)cc3)[C@@H]1C2 | 31.3 (≈ 102 µM) | 62.5 (≈ 203 µM) | 31.3 (≈ 102 µM) | 15.6 (≈ 50.6 µM) | 62.5 (≈ 203 µM)
23 | CC1(C)[C@H]2Cc3c(nc(O)c(C#N)c3-c3ccccc3Cl)[C@@H]1C2 | 125 (≈ 385 µM) | 62.5 (≈ 192 µM) | 125 (≈ 385 µM) | 125 (≈ 385 µM) | 125 (≈ 385 µM)
24 | CC1(C)[C@H]2Cc3c(nc(O)c(C#N)c3-c3cccc(O)c3)[C@@H]1C2 | 62.5 (≈ 204 µM) | 62.5 (≈ 204 µM) | 62.5 (≈ 204 µM) | 31.3 (≈ 102 µM) | 62.5 (≈ 204 µM)
25 | CC1(C)[C@H]2Cc3c(nc(N)c(C#N)c3-c3ccc(F)cc3)[C@@H]1C2 | > 125 | 125 (≈ 407 µM) | 62.5 (≈ 203 µM) | 125 (≈ 407 µM) | 125 (≈ 407 µM)
26 | NC[C@H]1O[C@H](O[C@H]2[C@H](O)[C@@H](O[C@H]3O[C@H](CO)[C@@H](O)[C@H](N)[C@H]3O)[C@H](N)C[C@@H]2N)[C@H](O)[C@@H](O)[C@@H]1O [KANAMYCIN] | 2 (≈ 4.13 µM) | 3.9 (≈ 8.05 µM) | – | 3.9 (≈ 8.05 µM) | 2 (≈ 4.13 µM)
27 | CC1(C)[C@H]2Cc3c(nc(N)c(C#N)c3-c3cccc(Br)c3)[C@@H]1C2 | > 125 | 125 (≈ 339 µM) | 125 (≈ 339 µM) | 125 (≈ 339 µM) | 125 (≈ 339 µM)
28 | COc1ccc(-c2c(C#N)c(N)nc3c2C[C@H]2C[C@@H]3C2(C)C)cc1OC | > 125 | > 125 | 62.5 (≈ 179 µM) | 125 (≈ 358 µM) | > 125
